Data taken from paper PMC10257182, “Discovery of senolytics using machine learning” (Nature Communications, 2023).
Several values for one entry are separate records, joined by “and”; a condition that tells them apart may be missing. Equal entries are not always repeated.

Legend:
Type in all cases: cell-based, human
[1] = system: senescent A549 cells (etoposide-induced); experiment: Nuclei count senolytic assay, therapy-induced senescence (TIS) model, senescent cells; conditions: Senescent cells, mean
In short: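 Nuclei counted by Hoechst 33342 imaging after fixation, following 72 h treatment with compound at 10 nM–10 μM (10-point […], triplicates). Targets were control A549 cells and A549 rendered senescent by 48 h 100 μM etoposide plus 3 days recovery.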

[2] = system: non-senescent control IMR90 ER:RAS cells; experiment: Nuclei count (Hoechst, high content imaging) senolytic assay, OIS model, non-senescent control cells; conditions: for Mean % Cell Survival: mean n=3 (Fig 3C)
In short: (§1)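 Senolytic read-out as total nuclei per well by automated Hoechst imaging after 72 h compound exposure (10 μM to 10 nM, 10-point […], triplicate), relative to untreated controls. Paired cultures: IMR90 ER:RAS kept non-senescent or made senescent with 100 nM final 4-OHT; ouabain served as positive control.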

[3] = system: senescent IMR90 ER:RAS cells (4-OHT-induced); experiment: Nuclei count (Hoechst, high content imaging) senolytic assay, oncogene-induced senescence (OIS) model, senescent cells; conditions: for Mean % Cell Survival: mean n=3 (Fig 3C)
In short: as §1

Which results are given for CC(C)=CCc1c(O)cc2oc3cc(O)c(O)c(CC=C(C)C)c3c(=O)c2c1O [Gamma mangostin, gamma mangostin]?
Mean % Cell Survival ([1]; log (dose) [M] -5): 104.426%; Mean % Cell Survival ([1]; log (dose) [M] -5.33): 105.938%; Mean % Cell Survival ([1]; log (dose) [M] -5.66): 108.604%; Mean % Cell Survival ([1]; log (dose) [M] -6): 101.088%; Mean % Cell Survival ([1]; log (dose) [M] -6.33): 110.065%; Mean % Cell Survival ([1]; log (dose) [M] -6.66): 106.259%; Mean % Cell Survival ([1]; log (dose) [M] -7): 114.559%; Mean % Cell Survival ([1]; log (dose) [M] -7.33): 114.138%; Mean % Cell Survival ([1]; log (dose) [M] -7.66): 105.957%; Mean % Cell Survival ([1]; log (dose) [M] -8): 105.108%; % Cell Survival ([2]; Control cells, log (dose) [M] -5, individual replicates, SUP FIG 4C): 83.3507% and 108.05% and 79.5367% and 95.8097%; % Cell Survival ([2]; Control cells, log (dose) [M] -5.33, individual replicates, SUP FIG 4C): 87.0968% and 96.0317% and 81.9498% and 89.128%; % Cell Survival ([2]; Control cells, log (dose) [M] -5.66, individual replicates, SUP FIG 4C): 85.64% and 147.846% and 85.3282% and 103.058%; % Cell Survival ([2]; Control cells, log (dose) [M] -6, individual replicates, SUP FIG 4C): 61.4984% and 93.424% and 84.0734% and 96.1495%; % Cell Survival ([2]; Control cells, log (dose) [M] -6.33, individual replicates, SUP FIG 4C): 89.5942% and 95.6916% and 116.216% and 74.9717%; % Cell Survival ([2]; Control cells, log (dose) [M] -6.66, individual replicates, SUP FIG 4C): 89.282% and 97.3923% and 91.7954% and 95.8097%; % Cell Survival ([2]; Control cells, log (dose) [M] -7, individual replicates, SUP FIG 4C): 92.924% and 97.5057% and 90.1544% and 99.6602%; % Cell Survival ([2]; Control cells, log (dose) [M] -7.33, individual replicates, SUP FIG 4C): 93.7565% and 97.2789% and 93.4363% and 109.513%; % Cell Survival ([2]; Control cells, log (dose) [M] -7.66, individual replicates, SUP FIG 4C): 96.9823% and 99.8866% and 98.9382% and 108.494%; % Cell Survival ([2]; Control cells, log (dose) [M] -8, individual replicates, SUP FIG 4C): 107.7% and 97.0522% and 93.3398% and 109.173%; Mean % Cell Survival ([2]; Control, log (dose) [M] -5, 72 h): 91.6867%; Mean % Cell Survival ([2]; Control, log (dose) [M] -5.33, 72 h): 88.5516%; Mean % Cell Survival ([2]; Control, log (dose) [M] -5.66, 72 h): 105.468%; Mean % Cell Survival ([2]; Control, log (dose) [M] -6, 72 h): 83.7863%; Mean % Cell Survival ([2]; Control, log (dose) [M] -6.33, 72 h): 94.1184%; Mean % Cell Survival ([2]; Control, log (dose) [M] -6.66, 72 h): 93.5698%; Mean % Cell Survival ([2]; Control, log (dose) [M] -7, 72 h): 95.0611%; Mean % Cell Survival ([2]; Control, log (dose) [M] -7.33, 72 h): 98.4962%; Mean % Cell Survival ([2]; Control, log (dose) [M] -7.66, 72 h): 101.075%; Mean % Cell Survival ([2]; Control, log (dose) [M] -8, 72 h): 101.816%; % Cell Survival ([2]; Control, log (dose) [M] -5): 92.5926% and 96.693% and 91.9267%; % Cell Survival ([2]; Control, log (dose) [M] -5.33): 94.2308% and 86.4127% and 82.768%; % Cell Survival ([2]; Control, log (dose) [M] -5.66): 90.6695% and 83.6808% and 81.9539%; % Cell Survival ([2]; Control, log (dose) [M] -6): 85.6125% and 87.1316% and 81.6147%; % Cell Survival ([2]; Control, log (dose) [M] -6.33): 95.7977% and 84.3997% and 85.8209%; % Cell Survival ([2]; Control, log (dose) [M] -6.66): 91.7379% and 85.9813% and 84.5319%; % Cell Survival ([2]; Control, log (dose) [M] -7): 95.6553% and 92.739% and 90.502%; % Cell Survival ([2]; Control, log (dose) [M] -7.33): 96.8661% and 91.0137% and 90.4342%; % Cell Survival ([2]; Control, log (dose) [M] -7.66): 96.7236% and 96.7649% and 94.3691%; % Cell Survival ([2]; Control, log (dose) [M] -8): 100.783% and 103.882% and 95.7938%; % Cell Survival ([3]; Senescent cells, log (dose) [M] -5, individual replicates, SUP FIG 4C): 68.9759% and 85.4054% and 104.1% and 60.479%; % Cell Survival ([3]; Senescent cells, log (dose) [M] -5.33, individual replicates, SUP FIG 4C): 98.1928% and 112.613% and 125.668% and 83.9521%; % Cell Survival ([3]; Senescent cells, log (dose) [M] -5.66, individual replicates, SUP FIG 4C): 81.0241% and 178.198% and 139.216% and 80.9581%; % Cell Survival ([3]; Senescent cells, log (dose) [M] -6, individual replicates, SUP FIG 4C): 64.6084% and 123.964% and 135.651% and 83.2335%; % Cell Survival ([3]; Senescent cells, log (dose) [M] -6.33, individual replicates, SUP FIG 4C): 91.7169% and 121.982% and 131.907% and 40.8383%; % Cell Survival ([3]; Senescent cells, log (dose) [M] -6.66, individual replicates, SUP FIG 4C): 78.1627% and 116.757% and 113.904% and 77.1257%; % Cell Survival ([3]; Senescent cells, log (dose) [M] -7, individual replicates, SUP FIG 4C): 99.8494% and 112.432% and 120.856% and 67.0659%; % Cell Survival ([3]; Senescent cells, log (dose) [M] -7.33, individual replicates, SUP FIG 4C): 98.3434% and 101.081% and 114.082% and 90.8982%; % Cell Survival ([3]; Senescent cells, log (dose) [M] -7.66, individual replicates, SUP FIG 4C): 107.681% and 108.829% and 116.934% and 93.4132%; % Cell Survival ([3]; Senescent cells, log (dose) [M] -8, individual replicates, SUP FIG 4C): 107.53% and 115.315% and 113.725% and 84.9102%; Mean % Cell Survival ([3]; Senescent, log (dose) [M] -5, 72 h): 79.74%; Mean % Cell Survival ([3]; Senescent, log (dose) [M] -5.33, 72 h): 105.106%; Mean % Cell Survival ([3]; Senescent, log (dose) [M] -5.66, 72 h): 119.849%; Mean % Cell Survival ([3]; Senescent, log (dose) [M] -6, 72 h): 101.864%; Mean % Cell Survival ([3]; Senescent, log (dose) [M] -6.33, 72 h): 96.6111%; Mean % Cell Survival ([3]; Senescent, log (dose) [M] -6.66, 72 h): 96.4872%; Mean % Cell Survival ([3]; Senescent, log (dose) [M] -7, 72 h): 100.051%; Mean % Cell Survival ([3]; Senescent, log (dose) [M] -7.33, 72 h): 101.101%; Mean % Cell Survival ([3]; Senescent, log (dose) [M] -7.66, 72 h): 106.714%; Mean % Cell Survival ([3]; Senescent, log (dose) [M] -8, 72 h): 105.37%; % Cell Survival ([3]; Senescent, log (dose) [M] -5): 105.907% and 101.805% and 105.566%; % Cell Survival ([3]; Senescent, log (dose) [M] -5.33): 105.42% and 104.907% and 107.486%; % Cell Survival ([3]; Senescent, log (dose) [M] -5.66): 112.424% and 103.215% and 110.173%; % Cell Survival ([3]; Senescent, log (dose) [M] -6): 104.019% and 94.1906% and 105.054%; % Cell Survival ([3]; Senescent, log (dose) [M] -6.33): 116.322% and 101.974% and 111.9%; % Cell Survival ([3]; Senescent, log (dose) [M] -6.66): 112.85% and 97.8003% and 108.125%; % Cell Survival ([3]; Senescent, log (dose) [M] -7): 120.95% and 109.419% and 113.308%; % Cell Survival ([3]; Senescent, log (dose) [M] -7.33): 110.231% and 111.901% and 120.282%; % Cell Survival ([3]; Senescent, log (dose) [M] -7.66): 99.6955% and 109.475% and 108.701%; % Cell Survival ([3]; Senescent, log (dose) [M] -8): 101.705% and 108.629% and 104.99%
